The text below walks through data of patent publication US7223781B2 (Beiersdorf AG, priority 2001, dated 2007).

Like-named read-outs stand apart in the source and are kept apart here.

Experiment [1] concerns the target T1, COX-2 (Homo sapiens, UniProt P35354).
T1 construct: endogenous in cells; host or cells: LPS-stimulated human monocytes (Ficoll extraction)
T1 sequence (P35354 18-604): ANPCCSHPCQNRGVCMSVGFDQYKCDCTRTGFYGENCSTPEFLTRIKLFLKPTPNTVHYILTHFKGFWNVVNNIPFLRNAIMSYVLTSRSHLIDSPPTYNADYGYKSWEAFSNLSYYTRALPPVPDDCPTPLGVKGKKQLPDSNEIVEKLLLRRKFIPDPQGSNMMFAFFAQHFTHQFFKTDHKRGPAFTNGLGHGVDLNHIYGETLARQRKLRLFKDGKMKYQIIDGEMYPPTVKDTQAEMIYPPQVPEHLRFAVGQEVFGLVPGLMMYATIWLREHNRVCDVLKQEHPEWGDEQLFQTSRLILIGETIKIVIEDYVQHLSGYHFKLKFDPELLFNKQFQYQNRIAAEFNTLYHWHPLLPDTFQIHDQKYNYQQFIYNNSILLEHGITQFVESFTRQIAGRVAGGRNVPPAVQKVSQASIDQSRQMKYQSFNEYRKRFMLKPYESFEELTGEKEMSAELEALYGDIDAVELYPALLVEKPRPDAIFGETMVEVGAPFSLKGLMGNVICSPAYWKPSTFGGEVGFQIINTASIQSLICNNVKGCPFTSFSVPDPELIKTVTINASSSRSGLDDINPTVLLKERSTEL
As to the kind of experiment: In-vitro test for COX-2 inhibition: PGE2 ELISA in LPS-stimulated human monocytes. Format: cell-based. To be noted: Table 18, LPS-stimulated human monocytes, PGE2. On the procedure:
In-vitro Test Procedure for the Determination of COX-2 Inhibition
The procedure is carried out on LPS-stimulated human monocytes which have been obtained by Ficoll extraction. The measurement variable used is the PGE2 formed, which is determined by means of ELISA.

Experiment [2] deals with T2, COX-1 (Sus scrofa, UniProt A0A287ANF9).
T2 construct: A platelet suspension obtained from pig's blood is preincubated with the test substance; endogenous in cells; host or cells: platelets from pig's blood
As to the kind of experiment: In-vitro test for COX-1 inhibition: fluorimetric quantification of malonaldehyde (MDA) in A23187-activated pig platelet suspension. The format is cell-based. On the procedure: In-vitro Test Procedure for the Determination of COX-1 Inhibition
The inhibition of the cyclooxygenase pathway is carried out by fluorimetric quantification of malonaldehyde (MA). This condenses in the acidic medium with twice the molar amount of thiobarbituric acid to give a red pigment dye, which has a fluorescence at λExcitation: 533 nm, λEmission: 550 nm.
A platelet suspension obtained from pig's blood is preincubated with the test substance for 10 min at 37° C. The concentration of the suspension should be 8×10^8 cells/ml. The arachidonic acid cascade is then activated by addition of the antibiotic calcium ionophore A23187 ([…]). After a further 10 min at 37° C., the reaction is stopped using a trichloroacetic acid solution. The samples are centrifuged and the supernatant is incubated with thiobarbituric acid for 30 min at 70° C. After cooling (30 min at room temperature), the samples are measured fluorimetrically at 533/550 nm and the IC50 values of the test compounds are determined therefrom by means of a calibration curve.

Setting [3] is: read-out: COX-2 inhibition pIC50 (converted).
[4] abbreviates: Table 1, carbamic acid thioesters, pig platelets, read-out: MDA IC50.
The mark [5] stands for this setting: tables 1 to 17, read-out: IC50 values (inhibition of cyclooxygenase-1).
The mark [6] stands for this setting: Table 2, sulfanylacetamides, pig platelets, read-out: MDA pIC50 (converted).
Setting [7] is: Table 15, N,N-acetamides, pig platelets, read-out: MDA pIC50 (converted).
[8] abbreviates: Table 8, arylsulfonamides, pig platelets, read-out: MDA pIC50 (converted).
Setting [9] is: Table 5, heteroarylmethyl sulfides, pig platelets, read-out: MDA pIC50 (converted).
Setting [10] is: Table 5, heteroarylmethyl sulfides, pig platelets, read-out: MDA IC50.
Setting [11] is: Table 14, sulfones and their sulfide analogs, pig platelets, read-out: MDA IC50.
The mark [12] stands for this setting: Table 7, arylamides, pig platelets, read-out: MDA IC50.
Setting [13] is: Table 7, arylamides, pig platelets, read-out: MDA pIC50 (converted).

T2 sequence (A0A287ANF9 25-600): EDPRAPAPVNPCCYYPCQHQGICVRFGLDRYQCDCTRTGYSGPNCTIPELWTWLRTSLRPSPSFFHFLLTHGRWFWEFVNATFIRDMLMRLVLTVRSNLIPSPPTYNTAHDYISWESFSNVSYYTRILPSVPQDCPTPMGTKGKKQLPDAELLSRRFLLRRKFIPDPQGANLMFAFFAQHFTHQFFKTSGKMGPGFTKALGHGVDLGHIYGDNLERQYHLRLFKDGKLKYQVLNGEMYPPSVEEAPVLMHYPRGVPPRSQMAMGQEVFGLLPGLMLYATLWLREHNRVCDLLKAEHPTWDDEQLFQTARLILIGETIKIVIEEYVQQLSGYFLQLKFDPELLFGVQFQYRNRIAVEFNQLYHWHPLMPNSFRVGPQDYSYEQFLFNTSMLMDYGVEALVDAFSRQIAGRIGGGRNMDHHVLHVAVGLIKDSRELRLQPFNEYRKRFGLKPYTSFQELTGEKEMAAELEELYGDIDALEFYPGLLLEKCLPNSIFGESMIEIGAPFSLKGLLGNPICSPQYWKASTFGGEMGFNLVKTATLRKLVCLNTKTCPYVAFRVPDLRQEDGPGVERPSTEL

Take `CCN(CC)C(=O)Sc1nc(-c2ccc(OC)cc2)c(-c2ccc(OC)cc2)[nH]1` [Compound T2, [4,5-Bis(4-methoxyphenyl)-1H-imidazol-2-yl]-N,N-diethylcarbamic acid thioester]: the values for the IC50 in experiment [1] (setting [3]), in experiment [2] (setting [4]) and in experiment [2] (setting [5]) were 2.4 µM, 0.0048 µM and about 0.001 µM, respectively.
Consider `COc1ccc(-c2nc(SCC(=O)N(C)C)[nH]c2-c2ccc(OC)cc2)cc1` [Compound T6, N^1N^1-Dimethyl-2-[4,5-bis(4-methoxyphenyl)-1H-imidazol-2-ylsulfanyl]-acetamide], for which the IC50 in experiment [1] (setting [3]) is 2.29 µM; in experiment [2] (setting [6]), 0.01 µM; in experiment [2] (setting [7]) it was 0.01 µM.
Take `COc1ccc(-c2nc(SC(C(C)=O)C(=O)N(C)C)[nH]c2-c2ccc(OC)cc2)cc1` (centres unmarked) [Compound T7, N^1,N^1-Dimethyl-2-[4,5-bis(4-methoxyphenyl)-1H-imidazol-2-ylsufanyl]-3-oxobutanamide]: the IC50 in experiment [1] (read-out: COX-2 inhibition IC50) was 0.5 µM; in experiment [2] (setting [6]) it was 0.0331 µM.
For `COc1ccc(-c2nc(SCC(=O)c3ccccc3)[nH]c2-c2ccc(OC)cc2)cc1` [Compound T11, 2-[4,5-Bis(4-methoxyphenyl)-1H-imidazol-2-ylsulfanyl]-1-phenylethan-1-one], the IC50 is 0.257 µM in experiment [1] (setting [3]); 0.0095 µM in experiment [2] (Table 4, aryl ketones, pig platelets, read-out: MDA IC50); about 0.001 µM in experiment [2] (setting [5]).
With `COc1ccc(-c2nc(SCCNS(=O)(=O)c3ccc(Cl)cc3)[nH]c2-c2ccc(OC)cc2)cc1` [Compound T18, N-hu 1-{2-[4,5-Bis(4-methoxyphenyl)-1H-imidazol-2-ylsufanyl]ethyl}-4-chlorobenzenesulfonamide], the IC50 was 3.02 µM in experiment [1] (setting [3]) and 0.282 µM in experiment [2] (setting [8]).
On to `COc1ccc(-c2nc(SCCNS(=O)(=O)c3cc(C(F)(F)F)cc(C(F)(F)F)c3)[nH]c2-c2ccc(OC)cc2)cc1` [Compound T22, N^1-{2-[4,5-Bis(4-methoxyphenyl)-1H-imidazol-2-ylsufanyl]ethyl}-3,5-bis-(trifluoromethyl)benzenesulfonamide], for which the IC50 in experiment [1] (setting [3]) was 1.51 µM; in experiment [2] (setting [8]) it was 0.407 µM.
The like results for `COc1ccc(-c2nc(SCCNS(=O)(=O)c3ccc(NC(C)=O)cc3)[nH]c2-c2ccc(OC)cc2)cc1` [Compound T27, N^1-(4-{2-[4,5-Bis(4-methoxyphenyl)-1H-imidazol-2-ylsufanyl]ethyl-sulfamoyl}phenyl)acetamide] were, in that order, 1.2 µM and 0.0182 µM.
With `COc1ccc(-c2nc(SCCNS(=O)(=O)c3ccc4ccccc4c3)[nH]c2-c2ccc(OC)cc2)cc1` [Compound T68, N^1-{2-[4,5-Bis(4-methoxyphenyl)-1H-imidazol-2-ylsulfanyl]ethyl}-naphthalene-2-sulfonamide], the IC50 in experiment [2] (Table 12, naphthylsulfonamides, pig platelets, read-out: MDA pIC50 (converted)) is 0.129 µM.
As for `COc1ccc(-c2nc(SCc3cccnc3)[nH]c2-c2ccc(OC)cc2)cc1` [Compound T70, 3-[4,5-Bis(4-methoxyphenyl)-1H-imidazol-2-ylsulfanylmethyl]pyridine], the IC50 is 0.00302 µM in experiment [2] (setting [9]) and about 0.001 µM in experiment [2] (setting [5]).
For `COc1ccc(-c2nc(SCc3ccncc3)[nH]c2-c2ccc(OC)cc2)cc1` [Compound T71, 4-[4,5-Bis(4-methoxyphenyl)-1H-imidazol-2-ylsulfanylmethyl]pyridine] the same measures were 0.00302 µM and about 0.001 µM.
Regarding `COc1ccc(-c2nc(SCc3ccc4ccccc4n3)[nH]c2-c2ccc(OC)cc2)cc1` [Compound T72, 2-[4,5-Bis(4-methoxyphenyl)-1H-imidazol-2-ylsulfanylmethyl]quinoline], the IC50 in experiment [2] (setting [10]) was determined as 0.09 µM.
Regarding `COc1ccc(-c2nc(SCc3nc4ccccc4[nH]3)[nH]c2-c2ccc(OC)cc2)cc1` [Compound T73], in experiment [2] (setting [9]), the IC50 was 0.389 µM.
As to `COc1ccc(-c2nc(S(=O)(=O)Cc3ccccn3)[nH]c2-c2ccc(OC)cc2)cc1` [Compound T74, 2-[4,5-Bis(4-methoxyphenyl)-1H-imidazol-2-ylsulfonylmethyl]pyridine], the IC50 in experiment [2] (setting [11]) amounted to 0.081 µM.
Turning to `COc1ccc(-c2nc(SCc3ccncc3)n(CC(=O)O)c2-c2ccc(OC)cc2)cc1` [Compound T77, 2-[4,5-Bis(4-methoxyphenyl)-2-(4-pyridylmethylsulfanyl)-1H-imidazol-1-yl]-acetic acid], the IC50 in experiment [2] (Table 6, N1-acetic acid derivatives, pig platelets, read-out: MDA IC50) is 0.72 µM.
Turning to `CCOC(=O)CSc1nc(-c2ccc(OC)cc2)c(-c2ccc(OC)cc2)[nH]1` [Compound T79, Ethyl 2-[4,5-bis(4-methoxyphenyl)-1H-imidazol-2-ylsufanyl]acetate], in experiment [2] (Table 14, sulfones and their sulfide analogs, pig platelets, read-out: MDA pIC50 (converted)), the IC50 was 0.012 µM.
Consider `CCOC(=O)CS(=O)(=O)c1nc(-c2ccc(OC)cc2)c(-c2ccc(OC)cc2)[nH]1` [Compound T80, Ethyl 2-[4,5-bis(4-methoxyphenyl)-1H-imidazol-2-ylsulfonyl]acetate], for which the results for the IC50 in experiment [2] (setting [11]) and in experiment [2] (setting [5]) were 0.0075 µM and about 0.001 µM, respectively.
`Clc1ccc(-c2nc(SCc3ccccn3)[nH]c2-c2ccc(Cl)cc2)cc1` [Compound T83, 2-[4,5-Bis(4-chlorophenyl)-1H-imidazol-2-ylsulfanylmethyl]pyridine]: the IC50 in experiment [2] (setting [9]) is 0.331 µM.
Consider `O=C(NCCSc1nc(-c2ccc(Cl)cc2)c(-c2ccc(Cl)cc2)[nH]1)c1ccccc1` [Compound T85, N^1-{2-[4,5-Bis(4-chlorophenyl)-1H-imidazol-2-ylsufanyl]ethyl}benzamide], for which the IC50 in experiment [2] (setting [12]) worked out at 0.45 µM.
For `CN(C)C(=O)CSc1nc(-c2ccc(Cl)cc2)c(-c2ccc(Cl)cc2)[nH]1` [Compound T87, N^1N^1-Dimethyl-2-[4,5-bis(4-chlorophenyl)-1H-imidazol-2-ylsulfanyl]-acetamide], the IC50 in experiment [2] (setting [7]) was 1.51 µM.
Take `CC(Sc1nc(-c2ccc(Cl)cc2)c(-c2ccc(Cl)cc2)n1C)C(=O)N(C)C` (centres unmarked) [Compound T88, 2-[4,5-Bis(4-chlorophenyl)-1-methyl-1H-imidazol-2-ylsufanyl]-1-(di-methylamino)propan-1-one]: in experiment [2] (Table 15, N,N-acetamides, pig platelets), the “MDA pIC50” value was 5.28 M. Besides, the IC50 in experiment [2] (Table 15, N,N-acetamides, pig platelets, read-out: MDA IC50) was 5.2 µM.
In the case of `c1ccc(-c2nc(SCc3ccccn3)[nH]c2-c2ccccc2)cc1` [Compound T91, 2-[4,5-Diphenyl-1H-imidazol-2-ylsulfanylmethyl]pyridine], the IC50 in experiment [2] (setting [10]) turned out to be 0.7 µM.
On to `O=C(NCCSc1nc(-c2ccccc2)c(-c2ccccc2)[nH]1)c1ccccc1` [Compound T94], for which, in experiment [2] (setting [13]), the IC50 is 2.09 µM.
The same measure, in the same setting: the figure for `O=C(NCCSc1nc(-c2ccc(F)cc2)c(-c2ccc(F)cc2)[nH]1)c1ccccc1` [Compound T98, N^1-{2-[4,5-Bis(4-fluorophenyl)-1H-imidazol-2-ylsufanyl]ethyl}benzamide] is 1 µM.
On to `CN(C)C(=O)Sc1nc(-c2ccc(Cl)cc2)c(-c2ccccc2)[nH]1` [Compound T103, [4-(4-Chlorophenyl)-5-phenyl-1H-imidazol-2-yl]-N,N-dimethylcarbamic acid thioester], for which the IC50 in experiment [2] (setting [4]) came to 7.3 µM.
`CCN(CC)C(=O)Sc1nc(-c2ccc(Cl)cc2)c(-c2ccccc2)[nH]1` [Compound T104, [4-(4-Chlorophenyl)-5-phenyl-1H-imidazol-2-yl]-N,N-diethylcarbamic acid thioester]: the IC50 in experiment [2] (Table 1, carbamic acid thioesters, pig platelets, read-out: MDA pIC50 (converted)) was 4.17 µM.
Turning to `O=C(NCCSc1nc(-c2ccc(Cl)cc2)c(-c2ccccc2)[nH]1)c1ccccc1` [Compound T106, N^1-{2-[4-(4-Chlorophenyl)-5-phenyl-1H-imidazol-2-ylsufanyl]ethyl}benzamide], the IC50 in experiment [2] (setting [12]) was 0.9 µM.
Regarding `COc1ccc(-c2[nH]c(SCCNC(=O)c3ccccc3)nc2-c2ccc(Cl)cc2)cc1` [Compound T110, N^1-{2-[4-(4-Chlorophenyl)-5-(4-methoxyphenv)-1H-imidazol-2-yl-sufanyl]ethyl}benzamide], the IC50 in experiment [2] (setting [13]) is 3.31 µM.
